How the values were obtained:
HeLa cells [1] = assay: standard MTT assay, cytotoxicity in HeLa cells; type: cell-based; settings: incubation at different concentrations for 24 h
From the text: Before bioimaging, the cytotoxicity of TVQE was first studied by standard MTT assay in HeLa cells.

esterase = assay: FL spectra of TVQE treated with active esterase in PBS; type: biochemical; settings: room temperature
Experimental: To get insight into the mechanism of TVQE to esterase, the FL spectra of TVQE treated with active esterase in PBS at room temperature were measured and shown in FIG. 11D. At the beginning, only a weak emission peak at around 700 nm was detected. As treatment time progressed, the fluorescence at about 520 nm increased gradually, which was consistent with the FL spectra of TVQ in PBS, depicted in FIG. 12B.

live HeLa cells = assay: CLSM imaging of live HeLa cells, in situ emission spectra and time tracking; type: cell-based
Experimental: Bioimaging experiments were then carried out in live HeLa cells. Based on the spectra imaging function of confocal laser scanning microscope (CLSM), the real color images of live HeLa cells stained with TVQE and in situ emission spectra were obtained (FIGS. 14A-14C and FIG. 15A). […] As designed, TVQE can be hydrolyzed by esterase to provide TVQ. It was speculated that the red emission came from TVQE while the blue emission was from the hydrolysate TVQ.
The in situ imaging performance of TVQE in live HeLa cells at different time points was then tracked and investigated (FIGS. 16A-16B and FIGS. 17A-17B). It could be observed that TVQE first stained mitochondria and emitted red fluorescence. Then, after about 5 min, lipid droplets in the blue channel were clearly illuminated. It should be noted that the fluorescence intensity in the red channel increased at the beginning, reached maximum at about 12 min, then decreased gradually. The fluorescence in the blue channel increased with increased time. […] In addition, the lipophilic hydrolysate tended to accumulate in lipid droplets gradually.

[2] = absorption and fluorescence (FL) spectra, photophysical properties; type: physicochemical
Experimental: The absorption and fluorescence (FL) spectra of TVQE and TVQ in different solvents were tested and the results are shown in FIGS. 11A-11D and FIGS. 12A-12D.
Furthermore, fluorescence spectra of TVQE in EtOH and EtOH/hexane mixtures with different hexane fraction were shown in FIG. 11A. In pure EtOH, TVQE was weakly emissive with a quantum yield of 0.7%. With the increase of hexane volume content, the FL intensity increased gradually, accompanied with blue-shift in FL maximum from 673 nm to 637 nm, shown in FIG. 11B. When fH=90%, FL intensity reached the maximum with a quantum yield of 3% due to the formation of aggregates, indicating the AIE feature of TVQE. The FL intensity decreased when fH increased to 95%, probably due to the change of the morphology and size of the aggregates. […]

HeLa cells [3] = assay: flow cytometry of live, early apoptotic, late apoptotic and dead cells stained by TVQE; type: cell-based
Experimental: As esterase activity can reflect cell viability, an investigation was conducted to determine whether TVQE could be used to evaluate cell viability. […] In apoptotic cells, the esterase activity decreased, so that the emission in the blue channel was much weaker than that in live cells. When HeLa cells were treated with 10 mM H2O2 for 1 h and 4.5 h, early and late apoptotic HeLa cells could be clearly and differentially visualized (FIGS. 18 and 19). […] However, nearly no blue-emissive fluorescence signal but strong red emission was detected in dead cells because of the inactivated esterase activity. […] The fluorescence changes in both blue and red channels of cells in different states were obtained from flow cytometry (Becton Dickinson FACSAria Mu). Referring to FIG. 20C, numerical values in the cyan region, e.g., mean fluorescent intensity values around 3.2×10^4 and 650 in the blue and red channels, respectively correspond to cells that were alive, numerical values in the red region, e.g., mean fluorescence intensity values around 1.4×10^4 and 780 in the blue and red channels, respectively, correspond to cells in early apoptotic stages, numerical values in the orange region, e.g., mean fluorescence intensity values around 1700 and 4200 in the blue and red channels, respectively, correspond to cells in the late apoptotic stages, and numerical values in the green region, e.g., mean fluorescence intensity values around 780 and 1.5×10^4 in the blue and red channels, respectively, correspond to cells that were dead.
Flow cytometry is a widely used tool for statistical analysis. It has different laser sources and is suitable for simultaneous detection of multichannel fluorescence signals. A flow cytometry assay was performed to monitor the fluorescence changes in both red and blue channels of cells at different physiological stages. […] Compared with live cells, the blue emission in early apoptotic cells was a little weaker. […] The red emission in dead cells was stronger in comparison with late apoptotic cells.

[4] = system: mitochondria in live HeLa cells; assay: co-stain with mitochondrial probe MitoTracker Deep Red FM (MTDR), CLSM; type: cell-based; settings: 2 μM TVQE, 0.2 μM MTDR
Experimental: (§1) To further confirm the staining location of TVQE, co-stain experiments with commercialized mitochondrial probe MitoTracker Deep Red FM (MTDR) and lipid-droplet probe Nile Red were performed.

[5] = system: lipid droplets in live HeLa cells; assay: co-stain with lipid-droplet probe Nile Red, CLSM; type: cell-based; settings: 2 μM TVQE, 1 μM Nile Red
Experimental: as §1

[6] = live HeLa cells stained with 2 μM TVQE, in situ emission spectra
[7] = cells in early apoptotic stages (10 mM H2O2)
[8] = cells in the late apoptotic stages (10 mM H2O2)

- fluorescence increasing gradually as treatment time progressed (esterase; esterase in PBS): about 520 nm
- emission peak at the beginning (esterase; esterase in PBS, beginning of treatment): around 700 nm
- Stokes shift ([2]; EtOH): 123 nm
- Φ (fluorescence quantum yield) ([2]; EtOH): 0.7%
- ε (molar absorptivity at maximum absorption wavelength) ([2]; EtOH): 18900 M⁻¹ cm⁻¹
- λabs (absorption maximum) ([2]; EtOH): 548 nm
- λem (emission maximum) ([2]; EtOH): 671 nm
- Stokes shift ([2]; Hexane/EtOH = 9/1): 131 nm
- ε (molar absorptivity at maximum absorption wavelength) ([2]; Hexane/EtOH = 9/1): 18800 M⁻¹ cm⁻¹
- λabs (absorption maximum) ([2]; Hexane/EtOH = 9/1): 527 nm
- λem (emission maximum) ([2]; Hexane/EtOH = 9/1): 656 nm
- Φ (fluorescence quantum yield) ([2]; Hexane/EtOH = 9/1 (fH=90%)): 3%
- Stokes shift ([2]; THF): 156 nm
- Φ (fluorescence quantum yield) ([2]; THF): 1.3%
- ε (molar absorptivity at maximum absorption wavelength) ([2]; THF): 16600 M⁻¹ cm⁻¹
- λabs (absorption maximum) ([2]; THF): 522 nm
- λem (emission maximum) ([2]; THF): 678 nm
- Stokes shift ([2]; Tol): 125 nm
- Φ (fluorescence quantum yield) ([2]; Tol): 6.6%
- ε (molar absorptivity at maximum absorption wavelength) ([2]; Tol): 17300 M⁻¹ cm⁻¹
- λabs (absorption maximum) ([2]; Tol): 534 nm
- λem (emission maximum) ([2]; Tol): 659 nm
- fluorescence emission ([2]; solid state): 739 nm
- quantum yield ([2]; solid state): 2.3%
SMILES: CC(=O)Oc1ccc(C[n+]2ccc(/C=C/c3ccc(N(c4ccccc4)c4ccccc4)cc3)c3ccccc32)cc1 [TVQE]
- viability of HeLa cells (HeLa cells [1]): higher than 85%
- hydrolysis by esterase (esterase; active esterase (1 U/mL) in PBS): could be hydrolyzed to TVQ with blue emission by esterase
- blue emission inside cells (live HeLa cells; [6]): 480 nm
- red emission inside cells (live HeLa cells; [6]): 650 nm
- time after which lipid droplets in the blue channel were clearly illuminated (live HeLa cells; live HeLa cells, 2 μM TVQE): about 5 min
- time at which fluorescence intensity in the red channel reached maximum (live HeLa cells; live HeLa cells, 2 μM TVQE): about 12 min
- mean fluorescence intensity, blue channel (HeLa cells [3]; [7]): around 1.4×10^4
- mean fluorescence intensity, red channel (HeLa cells [3]; [7]): around 780
- mean fluorescence intensity, blue channel (HeLa cells [3]; [8]): around 1700
- mean fluorescence intensity, red channel (HeLa cells [3]; [8]): ~4200
- mean fluorescent intensity, blue channel (HeLa cells [3]; cells that were alive): around 3.2×10^4
- mean fluorescent intensity, red channel (HeLa cells [3]; cells that were alive): ~650
- mean fluorescence intensity, blue channel (HeLa cells [3]; cells that were dead): around 780
- mean fluorescence intensity, red channel (HeLa cells [3]; cells that were dead): ~1.5×10^4
- co-localization coefficient with MTDR [4]: 0.9
- co-localization coefficient with Nile Red [5]: 0.87
